# According to patent US4312861A, “Pharmaceutical compositions containing N-alkyl-N-(nuclearly-substituted) benzylamines having vasotonia-regulating activity” (Hoechst Aktiengesellschaft, priority 1974, dated 1982):
# Test system: isolated portal vein
# Assay: Isolated rat's portal vein (Berti), increase in tonus
# Details: 10^-4 g/ml
# Description: (2) Isolated rat's portal vein
# The tests on the rat's portal vein, an organ with its own rhythm, were performed according to the method of Berti et al (Arch. int. Pharmacodyn. 184 (1970), page 328). In Table 4, the increase in tonus at various adrenalin concentrations is given in milligrams. As a comparison, the values for the known substance heptaminol (=6-amino-2-methylheptane-2-ol) are also given.
row,Compound,"Increase in tonus, isolated rat's portal vein"
1,CCCCCCOCCCNCc1c(C)cc(C)cc1C [compound 22],+271 milligrams
2,"CC(N)CCCC(C)(C)O (stereo not shown) [Heptaminol, 6-amino-2-methylheptane-2-ol, reference compound]",+47 milligrams
3,CCC(C)CC(C)NCc1c(C)cc(C)cc1C (stereo not shown) [compound 28],+84 milligrams

# Same assay, conditions: 10^-5 g/ml
row,Compound,"Increase in tonus, isolated rat's portal vein"
1,CCCCCCOCCCNCc1c(C)cc(C)cc1C [compound 22],+225 milligrams
2,"CC(N)CCCC(C)(C)O (stereo not shown) [Heptaminol, 6-amino-2-methylheptane-2-ol, reference compound]",+9 milligrams
3,CCC(C)CC(C)NCc1c(C)cc(C)cc1C (stereo not shown) [compound 28],+57 milligrams

# Same assay, conditions: 10^-6 g/ml
row,Compound,"Increase in tonus, isolated rat's portal vein"
1,CCCCCCOCCCNCc1c(C)cc(C)cc1C [compound 22],+65 milligrams
2,"CC(N)CCCC(C)(C)O (stereo not shown) [Heptaminol, 6-amino-2-methylheptane-2-ol, reference compound]",+9 milligrams
3,CCC(C)CC(C)NCc1c(C)cc(C)cc1C (stereo not shown) [compound 28],+21 milligrams

# Same assay, conditions: in words
row,Compound,Increase in vasotonus compared with heptaminol
1,CCCCCCOCCCNCc1c(C)cc(C)cc1C [compound 22],distinctly stronger increase in vasotonus than the comparison substance heptaminol

# Test system: perfused rabbit ear
# Assay: Blood-flow change in perfused isolated rabbit ear, vaso-dilator activity (Ringer-Norfenefrin solution)
# Details: 3 × 10^-5 g/ml
# Description: (3) Blood-flow change in an isolated rabbit ear
# The tests were carried out according to Krakow-Pissemski (Pflugers Archiv 151 (1913), page 583 and 156 (1914), page 426). In Table 5a the estimated values of the vaso-constrictor activity in Ringer solutions of varying concentrations are given and in Table 5b values for vasodilatory activity in Ringer-Norfenefrin solutions of varying concentrations are given. As a comparison, the values obtained with the known preparation aescin sodium are given.
row,Compound,"Relative change in blood flow, vaso-dilator activity"
1,CCCCCCOCCCNCc1c(C)cc(C)cc1C [compound 22],0
2,COCCCNCc1c(C)cc(C)cc1C [compound 20],+30
3,CCCCCC(C)NCc1ccccc1Br (stereo not shown) [compound 12],+12
4,"CCCCCC(C)NCc1ccc(Cl)cc1 (single isomer, unassigned) [compound 8]",+66
5,Cc1cc(C)c(CNC(C)CCCC(C)C)c(C)c1 (stereo not shown) [compound 29],+19
6,CCCCCC(C)N(Cc1c(C)cc(C)cc1C)CP(C)(C)=O (stereo not shown) [compound 30],+67
7,"CCCCCC(C)NCc1c(C)cc(C)cc1C (single isomer, unassigned) [compound 3]",+38
8,CCC(C)CC(C)NCc1c(C)cc(C)cc1C (stereo not shown) [compound 28],+47

# Same assay, conditions: 10^-4 g/ml
row,Compound,"Relative change in blood flow, vaso-dilator activity"
1,COCCCNCc1c(C)cc(C)cc1C [compound 20],+131
2,Cc1cc(C)c(CNC(C)CCCC(C)(C)O)c(C)c1 (stereo not shown) [compound 31],+87

# Same assay, conditions: 10^-5 g/ml
row,Compound,"Relative change in blood flow, vaso-dilator activity"
1,COCCCNCc1c(C)cc(C)cc1C [compound 20],+4
2,CCCCCC(C)N(Cc1c(C)cc(C)cc1C)CP(C)(C)=O (stereo not shown) [compound 30],+79
3,Cc1cc(C)c(CNC(C)CCCC(C)(C)O)c(C)c1 (stereo not shown) [compound 31],+41
4,"CCCCCC(C)NCc1c(C)cc(C)cc1C (single isomer, unassigned) [compound 3]",+105

# Same assay, conditions: 10^-6 g/ml
row,Compound,"Relative change in blood flow, vaso-dilator activity"
1,COCCCNCc1c(C)cc(C)cc1C [compound 20],+12
2,"CCCCCC(C)NCc1ccc(Cl)cc1 (single isomer, unassigned) [compound 8]",+3
3,Cc1cc(C)c(CNC(C)CCCC(C)(C)O)c(C)c1 (stereo not shown) [compound 31],+12
4,"CCCCCC(C)NCc1c(C)cc(C)cc1C (single isomer, unassigned) [compound 3]",+43

# Same assay, conditions: 10^-7 g/ml
row,Compound,"Relative change in blood flow, vaso-dilator activity"
1,"CCCCCC(C)NCc1c(C)cc(C)cc1C (single isomer, unassigned) [compound 3]",+3

# Same assay, conditions: in words
row,Compound,Effect on vessels of the tonicised rabbit ear
1,"CC(N)CCCC(C)(C)O (stereo not shown) [Heptaminol, 6-amino-2-methylheptane-2-ol, reference compound]",intensifies the Ringer-Norfenefrin constriction in the rabbit ear

# Same assay, conditions: mark in 10^-4 g/ml line
row,Compound,"Control test with heptaminol, rabbit ear (footnote ++)"
1,"CC(N)CCCC(C)(C)O (stereo not shown) [Heptaminol, 6-amino-2-methylheptane-2-ol, reference compound]",constriction

# Test system: isolated guinea-pig heart
# Assay: Relative coronary blood-flow change in isolated guinea-pig heart (Langendorff)
# Details: 10 μg
# Description: (4) Relative coronary blood-flow change in an isolated guinea-pig heart.
# The tests were carried out according to the method of Langendorff (Pflugers Archiv. 61 (1895), page 219).
# In Table 5, the change in coronary blood flow after administration of various quantities of the test substance is compared with that after administration of the known compounds heptaminol and Aescin sodium salt.
row,Compound,"Relative change in coronary blood flow, second figure after slash"
1,CCCCCC(C)NCc1c(C)c(C)cc(C)c1C (stereo not shown) [compound 1],-14
2,Cc1cc(C)c(CNCCCC(C)C)c(C)c1 [compound 19],-15

# Same assay, conditions: 10 μg (first figure where two are given)
row,Compound,Relative change in coronary blood flow
1,CCCCCCCNCc1c(C)cc(C)cc1C [compound 16],+55
2,CCCCCC(C)N(Cc1c(C)cc(C)cc1C)CP(C)(C)=O (stereo not shown) [compound 30],+158
3,CCCCCC(C)NCc1c(C)c(C)cc(C)c1C (stereo not shown) [compound 1],+53
4,"CCCCCC(C)NCc1c(C)cc(C)cc1C (single isomer, unassigned) [compound 3]",+14
5,"CC(N)CCCC(C)(C)O (stereo not shown) [Heptaminol, 6-amino-2-methylheptane-2-ol, reference compound]",0
6,Cc1cc(C)c(CNCCCC(C)C)c(C)c1 [compound 19],+30

# Same assay, conditions: 30 μg
row,Compound,"Relative change in coronary blood flow, second figure after slash"
1,CCCCCC(C)NCc1c(C)c(C)cc(C)c1C (stereo not shown) [compound 1],-11
2,Cc1cc(C)c(CNCCCC(C)C)c(C)c1 [compound 19],-10

# Same assay, conditions: 30 μg (first figure where two are given)
row,Compound,Relative change in coronary blood flow
1,CCCCCCOCCCNCc1c(C)cc(C)cc1C [compound 22],+109
2,CCCCCCCNCc1c(C)cc(C)cc1C [compound 16],+61
3,Cc1cc(C)c(CNC(C)CCCC(C)C)c(C)c1 (stereo not shown) [compound 29],+111
4,CCCCCC(C)N(Cc1c(C)cc(C)cc1C)CP(C)(C)=O (stereo not shown) [compound 30],+211
5,CCCCCC(C)NCc1c(C)c(C)cc(C)c1C (stereo not shown) [compound 1],+130
6,"CCCCCC(C)NCc1c(C)cc(C)cc1C (single isomer, unassigned) [compound 3]",+19
7,"CC(N)CCCC(C)(C)O (stereo not shown) [Heptaminol, 6-amino-2-methylheptane-2-ol, reference compound]",0
8,CCC(C)CC(C)NCc1c(C)cc(C)cc1C (stereo not shown) [compound 28],+118
9,Cc1cc(C)c(CNCCCC(C)C)c(C)c1 [compound 19],+71

# Same assay, conditions: 100 μg (first figure where two are given)
row,Compound,Relative change in coronary blood flow
1,CCCCCC(C)N(Cc1c(C)cc(C)cc1C)CP(C)(C)=O (stereo not shown) [compound 30],+232
2,"CCCCCC(C)NCc1c(C)cc(C)cc1C (single isomer, unassigned) [compound 3]",+30
3,"CC(N)CCCC(C)(C)O (stereo not shown) [Heptaminol, 6-amino-2-methylheptane-2-ol, reference compound]",0
4,CCC(C)CC(C)NCc1c(C)cc(C)cc1C (stereo not shown) [compound 28],+226

# Same assay, conditions: in words
row,Compound,Effect on coronary vessels of the guinea-pig heart
1,"CC(N)CCCC(C)(C)O (stereo not shown) [Heptaminol, 6-amino-2-methylheptane-2-ol, reference compound]",no effect on the guinea-pig heart

# Test system: permeability of the capillaries
# Assay: Histamine rash test (modified Halpern), capillary permeability
# Assay type: in vivo
# Details: 1.0 mg/kg i.p., 30 minutes before histamine
# Description: The test according to Halpern (Presse medicale 65 (1949), page 949) was used in modified form. The suppressive effect of the compounds according to the invention on the permeability of the capillaries was tested. The blue coloration induced by intravenous administration of trypan blue at two intracutaneous histamine injection points per animal, (trypan blue administered 2 minutes before the histamine), was estimated according to the following scale of values:
# indications of blue coloration
# clear blue coloration =4
# stong blue coloration =6
# The preceding evaluation was made from the combined effect at the two injection points.
# The test substances were administered i.p. 30 minutes before the histamine injection.
row,Compound,"Histamine rash test, blue coloration score (0 = none, 2 = indications, 4 = clear, 6 = strong)"
1,CCCCCCOCCCNCc1c(C)cc(C)cc1C [compound 22],2.6
2,Cc1cc(C)c(CNC(C)CCCC(C)C)c(C)c1 (stereo not shown) [compound 29],3.3
3,"CCCCCC(C)NCc1c(C)cc(C)cc1C (single isomer, unassigned) [compound 3]",2.5

# Same assay, conditions: 3.0 mg/kg i.p., 30 minutes before histamine
row,Compound,"Histamine rash test, blue coloration score (0 = none, 2 = indications, 4 = clear, 6 = strong)"
1,CCCCCCOCCCNCc1c(C)cc(C)cc1C [compound 22],1.3
2,Cc1cc(C)c(CNC(C)CCCC(C)C)c(C)c1 (stereo not shown) [compound 29],1.7
3,"CCCCCC(C)NCc1c(C)cc(C)cc1C (single isomer, unassigned) [compound 3]",2.5
4,CCC(C)CC(C)NCc1c(C)cc(C)cc1C (stereo not shown) [compound 28],2.9

# Same assay, conditions: 10.0 mg/kg i.p., 30 minutes before histamine
row,Compound,"Histamine rash test, blue coloration score (0 = none, 2 = indications, 4 = clear, 6 = strong)"
1,Cc1cc(C)c(CNC(C)CCCC(C)(C)O)c(C)c1 (stereo not shown) [compound 31],2.6

# Test system: not listed separately
# Assay: Toxicity in the mouse (Litchfield and Wilcoxon)
# Assay type: in vivo
# Details: mouse, in vivo, ip
# Description: (6) Toxicity in the mouse
# Toxicity was determined according to Litchfield and Wilcoxon (J. Pharmacol. exp. Ther. 97 (1949), page 399) in the mouse. In comparison, the values with the known substance aescin sodium salt were determined. Comparative tests with 0.1% solution, of venous and optical compatibility on the rabbit yielded similar results.
row,Compound,LD50 [mg/kg]
1,CCCCCCOCCCNCc1c(C)cc(C)cc1C [compound 22],25 to 50
2,COCCCNCc1c(C)cc(C)cc1C [compound 20],50 to 100
3,CCCCCCCNCc1c(C)cc(C)cc1C [compound 16],50 to 100
4,CCCCCC(C)NCc1ccccc1Br (stereo not shown) [compound 12],100 to 250
5,"CCCCCC(C)NCc1ccc(Cl)cc1 (single isomer, unassigned) [compound 8]",25 to 100
6,Cc1cc(C)c(CNC(C)CCCC(C)C)c(C)c1 (stereo not shown) [compound 29],50 to 100
7,CCCCCC(C)N(Cc1c(C)cc(C)cc1C)CP(C)(C)=O (stereo not shown) [compound 30],100 to 250
8,CCCCCC(C)NCc1c(C)c(C)cc(C)c1C (stereo not shown) [compound 1],50 to 100
9,"CCCCCC(C)NCc1c(C)cc(C)cc1C (single isomer, unassigned) [compound 3]",50 to 100
10,CCC(C)CC(C)NCc1c(C)cc(C)cc1C (stereo not shown) [compound 28],50 to 100
11,Cc1cc(C)c(CNCCCC(C)C)c(C)c1 [compound 19],100 to 250

# Same assay, conditions: mouse, in vivo, iv
row,Compound,LD50 [mg/kg]
1,Cc1cc(C)c(CNC(C)CCCC(C)(C)O)c(C)c1 (stereo not shown) [compound 31],50 to 100
2,"CCCCCC(C)NCc1c(C)cc(C)cc1C (single isomer, unassigned) [compound 3]",10.8

# Test system: carrageenin oedema in the rat paw
# Assay: Suppression of carrageenin oedema in the rat paw (Siegmund)
# Assay type: in vivo
# Details: 100 mg/kg p.o.; 3 h p.a.
# Description: (7) Suppression of carrageenin oedema in the rat paw
# The inflammation-reducing and anti-oedematous effects on carrageenin and serotonin oedemas in the rat paw were studied according to Siegmund et al (Proc. Soc. exp. Biol. Med. 95 (1957), page 729). The values are given as percentages, based on the values obtained in control tests using a dummy procedure. In this way, the antiphlogistic activity of the substances according to the invention was tested.
row,Compound,Suppression of carrageenin oedema in the paw (antiphlogistic activity) [%]
1,"CCCCCC(C)NCc1c(C)cc(C)cc1C (single isomer, unassigned) [compound 3]",11

# Same assay, conditions: 200 mg/kg p.o.; 3 h p.a.
row,Compound,Suppression of carrageenin oedema in the paw (antiphlogistic activity) [%]
1,Cc1cc(C)c(CNC(C)CCCC(C)(C)O)c(C)c1 (stereo not shown) [compound 31],26

# Test system: writhing movements in the mouse
# Assay: Writhing test (Winter)
# Assay type: in vivo
# Details: 50 mg/kg p.o.
# From the text: The analgesic activity of the compounds according to the invention were studied by the method of Winter et al (Proc. Soc. exp. Biol. Med, 111 (1962), page 544), in which the suppression of writhing movements in the mouse was observed.
row,Compound,Suppression of writhing movements [%]
1,"CCCCCC(C)NCc1ccc(Cl)cc1 (single isomer, unassigned) [compound 8]",15
